Source: patent US9115212B2, “Bifunctional peptide” (REGENTIS INTERNATIONAL, priority 2012, dated 2015)
Where a SMILES comes first, the peptide text is derived from it.

Assays:
type I collagen = assay: Protein expression of type I collagen in dermal fibroblasts (Western Blot, ImageJ); type: cell-based, human; settings: peptide 100 μg/ml, vs untreated control
Method: (§1) The dermal fibroblasts were isolated from abdomen skin biopsies obtained during surgery operations performed on healthy patients between 35 and 75 years of age.
(§2) After removing the epidermis, the fibroblasts were recovered by enzymatic digestion, then were cultured at 37° C. in DMEM (Dulbecco's Modified Eagle Medium) medium supplemented with 10% fetal calf serum and 1% penicillin/streptomycin.
(§3) The fibroblasts were then treated with the peptide having sequence […] (SEQ. ID NO. 1), or various fragments of this sequence, at a concentration of 100 μg/ml. The various fragments tested are as follows: • peptide 1 (pept 1): peptide having the sequence […] (SEQ. ID NO. 1), • peptide 2 (pept 2): sequence […] (SEQ. ID NO. 1), wherein N-terminal and C-terminal ends correspond to N and OH, respectively • peptide 3 (pept 3): (VGVAPG (SEQ. ID NO: 29))3, wherein N-terminal and C-terminal ends correspond to N and OH, respectively • peptide 4 (pept 4): RVRLIL (SEQ. ID NO. 32, wherein N-terminal and C-terminal ends correspond to N and OH, respectively • peptide 5 (pept 5): N-Gly-Ile-Leu-OH
The protein expression of the type I collagen and the type III collagen has then been shown by Western Blot and quantified by ImageJ. The results are shown respectively in the attached FIGS. 3A and 3B. The control (Ctrl) corresponds to the expression of type I and III collagen at the level of cells not treated with peptides. The experiments were performed in triplicate.

type III collagen = assay: Protein expression of type III collagen in dermal fibroblasts (Western Blot, ImageJ); type: cell-based, human; settings: peptide 100 μg/ml
Method: as §1, §2, §3
The protein expression of the type I collagen and the type III collagen has then been shown by Western Blot and quantified by ImageJ. The results are shown respectively in the attached FIGS. 3A and 3B. […]

urokinase [1] = target: T1, urokinase (Homo sapiens, UniProt P00749); assay: Cleavage of the bifunctional peptide by the urokinase (HPLC); settings: excess of urokinase, peptide 0.45 mM
Method: At the pericellular level, an excess of urokinase was observed, of about 10^−4 M. The peptide could thus be cleaved by the urokinase, the latter acting in particular at the level of the arginine residues (Arg) of the portion B of the peptide according to the invention.
Studies were conducted by HPLC on a Chromolith Jupiter C18 column (50×4.6 mm), and applying a linear gradient of 0.1% TFA of acetonitrile in 0.1% TFA of water, 0 to 100% for 100 min. […] However, after the action of an excess of urokinase on the bifunctional peptide (0.45 mM), the spectral peak was different; indeed, the new peak was eluted at 20 min, thus characterizing a cleavage of the bifunctional peptide by the urokinase (FIG. 8B).

dermal fibroblasts = assay: Toxicity on dermal fibroblasts; type: cell-based; settings: peptide concentrations up to 1 mg/ml
Method: (§4) According to an embodiment, the bifunctional peptide is used preferably at a concentration substantially between 10 μg/ml and 1 mg/ml. Indeed, no toxicity of the peptide according to the invention has been observed on dermal fibroblasts treated with peptide concentrations up to 1 mg/ml. In addition, studies conducted in order to find the toxicity genes through the SAM (Significance Analysis of Microarrays) statistical approach have shown that the cell death, the disruption of the conjunctive tissue and the tumor invasion are induced only from a high concentration of bifunctional peptide, higher than 1 mg/ml.

urokinase [2] = target: T1, urokinase; assay: Urokinase activity on synthetic substrate S2444; type: biochemical
Method: The activity of the urokinase on its synthetic substrate, D-Glu-Gly-Arg+NHPhNO2 L-Pyroglutamyl-glycyl-L-arginine-p-Nitroaniline hydrochloride (2444) has been tested in the presence and absence of the peptide according to the invention at different concentrations.
A kinetics of hydrolysis of the substrate S2444 […] by the urokinase (9.25*10^−6 mM) was carried out in the presence of the bifunctional peptide having the sequence […] (SEQ. ID NO. 1) and concentrated at 10^−3, 10^−4 and 10^−5 M for 1 hour. The control corresponds to the kinetics in the absence of peptide. The enzyme activity was evaluated by measuring the absorbance (DO) at 405 nm every 5 minutes for a period of 35 min.
FIG. 6B is a graphical representation of the dose/effect relationship between the activity of the urokinase and the concentration of the bifunctional peptide used at time 15 min. The dotted line in the figure permits to determine the IC50, i.e. the peptide concentration required to reduce the activity of the urokinase by 50%.

COL3A1 gene = assay: Gene expression of COL3A1 in fibroblast cultures (real-time PCR); type: cell-based, human; settings: fibroblasts, 100 μg/ml, 24 h; for gene expression of type III collagen (COL3A1): normalised to GAPDH
Method: (§5) The gene expression of the type I and III collagens in cultures of fibroblasts was also tested in the presence of the different peptides (pept 1 to pept 5) at a concentration of 100 μg/ml.
(§6) After 24 h of treatment with different peptides, the RNAs were extracted from the cultures using a RNeasy® kit (QIAGEN), then re-transcribed into complementary DNAs (cDNAs) using the RT2 First Strand Kit from SABiosciences™.
(§7) Real-time PCR analyses were then performed using the Mx3000p thermocycler from Stratagene in a 96-well plate. Each sample was analyzed in triplicate. The CDNAs serve as matrices in a reaction mixture containing the RT2 SYBR® Green/ROX™ qPCR Master Mix reagents (SABiosciences™) and the sense and antisense primers specific for the gene to be amplified. The reading of the fluorescence was performed at the end of each cycle and analyzed by means of the MxPro software (Stratagene). The relative expression of the COL1A1 and COL3A1 genes of interest coding for type I and type III collagen was obtained by normalizing the amount of products for amplifying the gene being studied by the amount of DNA amplified from a “domestic” gene, in this case the RNA of the gene encoding for the glyceraldehyde-3-phosphate dehydrogenase (GAPDH). As from the number of cycles corresponding to an amplification with a 100% efficiency, the relative quantity of cDNAs studied was calculated using the 2-AACT method (Livak & Schmittgen, 2001).
(§8) The control (Ctrl) corresponds to the expression of the genes coding for both types of collagen when the fibroblasts are not treated.

COL1A1 gene = assay: Gene expression of COL1A1 in fibroblast cultures (real-time PCR); type: cell-based, human; settings: fibroblasts, 100 μg/ml, 24 h, normalised to GAPDH
Method: as §5, §6, §7, §8

[3] = system: type I and type III collagen; assay: Collagen expression depending on the age of the patients; type: cell-based, human; settings: dermal fibroblasts from patients
Method: Dermal fibroblasts from younger or older patients were cultured and the bifunctional peptide according to the invention having the sequence […] (SEQ. ID NO. 1) has been tested as to the protein and gene expression of type I and type III collagen. The results obtained as regards the protein expression of the two types of collagen are visible in FIG. 5.

MMP-1 [4] = target: T2, MMP-1 (Homo sapiens, UniProt P03956); assay: MMP-1 activity on natural substrate, collagen fibers of human dermis (cuts of skin, immunostaining); settings: APMA-activated MMP-1, peptide 100 μg/ml, 3 h
T2 sequence (P03956 100-469): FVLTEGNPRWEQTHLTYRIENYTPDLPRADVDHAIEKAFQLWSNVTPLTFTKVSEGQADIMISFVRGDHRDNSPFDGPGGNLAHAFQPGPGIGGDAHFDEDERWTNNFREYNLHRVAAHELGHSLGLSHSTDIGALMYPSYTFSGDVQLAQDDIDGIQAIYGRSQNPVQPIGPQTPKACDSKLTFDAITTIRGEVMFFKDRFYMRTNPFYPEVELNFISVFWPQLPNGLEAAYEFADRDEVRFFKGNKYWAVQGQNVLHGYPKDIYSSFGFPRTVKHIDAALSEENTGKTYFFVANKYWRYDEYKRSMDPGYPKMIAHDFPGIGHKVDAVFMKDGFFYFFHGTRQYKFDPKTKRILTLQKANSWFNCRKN
Method: The effects of the peptide according to the invention were also tested on the activity of the MMP-1 in the presence of its natural substrate, i.e. the collagen fibers of human dermis.
To this end, the MMP-1 has previously been activated by APMA (4-aminophenylmercuric acetate) at 20 mM for 1 h30 at 37° C. The so activated MMP-1 was then deposited on cuts of skin having a thickness of 5μ in the presence or absence of the peptide according to the invention (100 μg/ml). After 3 h, the cuts of skin were immunostained, in order to reveal the presence of type I and III collagen, then observed by confocal microscopy. […] On the other hand, in the presence of the bifunctional peptide, the action of said MMP-1 was inhibited; indeed, the collagens I and III were detected.

toxicity genes = assay: Toxicity genes through the SAM (Significance Analysis of Microarrays) statistical approach; type: cell-based
Method: as §4

MMP-1 [5] = target: T2, MMP-1; assay: MMP-1 activity on synthetic substrate DNP-Pro-Cha-Gly-Cys (Me)-His-Ala-Lys (N-Me-Abz)-NH2; type: biochemical
Method: The substrate of the MMP-1 that was used to test its activity in the presence of the peptide is a synthetic substrate, DNP-Pro-Cha-Gly-Cys (Me)-His-Ala-Lys (N-Me-Abz)-NH2.
A concentration of 80 ng/μl of MMP-1 was brought in the presence of 0.4 ng/μl of synthetic substrate, in the presence or not of bifunctional peptide concentrated at 10^−3, 10^−4 and 10^−5 M for 1 h.
More particularly, FIG. 7A represents a kinetics of hydrolysis of the synthetic substrate of the MMP-1 in the presence or absence (control) of the peptide at different concentrations. The enzymatic activity of the MMP-1 was evaluated by measuring the absorbance (DO) at 465 nm every 5 minutes for a period of 35 min.
FIG. 7B is a graphical representation of the dose-effect relationship between the activity of the MMP-1 and the concentration of bifunctional peptide used at time 15 min.
The Gly-Ile-Leu (GIL) sequence was selected by the inventors for its capability of occupying the P′1, P′2 and P′3 pockets of type I collagenase, the MMP-1. The activity of the latter has been tested on the synthetic substrate, the DNP-Pro-Cha-Gly-Cys (Me)-His-Ala-Lys(N-Me-Abz)-NH2, in the presence or absence of the peptide 5 having the Gly-Ile-Leu (GIL) sequence at concentrations of 10^−5, 10^−4 and 10^−3 M.

Molecule | stimulation of the protein expression of the type I collagen (type I collagen) | increase in the synthesis of type III collagen compared to fibroblasts treated with pept 3 (type III collagen; relative to pept 3) | production of type III collagen (type III collagen; vs untreated control) | cleavage by urokinase (urokinase [1]) | toxicity on dermal fibroblasts (dermal fibroblasts) | mode of urokinase inhibition (urokinase [2]) | gene expression of type III collagen (COL3A1) (COL3A1 gene) | synthesis of type III collagen (gene expression) with respect to cells treated with peptide 3 (COL3A1 gene; relative to peptide 3) | gene expression of type I collagen (COL1A1) (COL1A1 gene) | action on the synthesis of collagen depending on the age of the patients [3] | action of MMP-1 on collagens I and III of cuts of skin (MMP-1 [4]) | concentration from which cell death, disruption of the conjunctive tissue and tumor invasion are induced (toxicity genes) | effect on the activity of the MMP-1 on its synthetic substrate (MMP-1 [5]; 10^−5, 10^−4 and 10^−3 M) | IC50 (MMP-1 [5]; synthetic substrate, time 15 min, read-out: IC50 MMP-1 activity, peptide concentration (converted))
CC[C@H](C)[C@H](NC(=O)CNC(=O)[C@H](CC(C)C)NC(=O)[C@H](CCCNC(=N)N)NC(=O)[C@@H](NC(=O)[C@H](CCCNC(=N)N)NC(=O)CNC(=O)[C@@H]1CCCN1C(=O)[C@H](C)NC(=O)[C@@H](NC(=O)[C@H](C)NC(=O)[C@@H](NC(=O)CNC(=O)[C@@H]1CCCN1C(=O)[C@H](C)NC(=O)[C@@H](NC(=O)[C@H](C)NC(=O)[C@@H](NC(=O)CNC(=O)[C@@H]1CCCN1C(=O)[C@H](C)NC(=O)[C@@H](NC(=O)CNC(=O)[C@@H](N)C(C)C)C(C)C)C(C)C)C(C)C)C(C)C)C(C)C)C(C)C)C(=O)N[C@@H](CC(C)C)C(=O)O [pept 1] (H-VGVAPGVAVAPGVAVAPGRVRLGIL-OH) | 30% | 36% | more than doubled | cleavage | no toxicity | competitive inhibitor | stimulate | increase | stimulate | greater when the fibroblasts proceed from older patients | inhibited | higher than 1 mg/ml | – | –
RVRLIL [pept 4, ID NO; 32] | do not permit the stimulation | – | – | – | – | – | no effect | – | no effect | – | – | – | – | –
(VGVAPG (SEQ. ID NO: 29))3 [pept 3] | 30% | – | – | – | – | – | stimulate | – | stimulate | – | – | – | – | –
VGVAPGVAVAPGVAVAPGRVRLGIL [pept 2] | 30% | – | – | – | – | – | stimulate | – | stimulate | – | – | – | – | –
CC[C@H](C)[C@H](NC(=O)CN)C(=O)N[C@@H](CC(C)C)C(=O)O [pept 5, N-Gly-Ile-Leu-OH] (H-Gly-Ile-Leu-OH) | do not permit the stimulation | – | – | – | – | – | no effect | – | no effect | – | – | – | decreases in a dose-dependent way | 70.7 µM
